Assay results reported in publication PMC6178348, “Intranasal delivery of a Fas-blocking peptide attenuates Fas-mediated apoptosis in brain ischemia” (Scientific Reports, 2018).
Peptide text beside a SMILES is read from it.

Experiments:
normal rat brain tissue = assay: H&E and TUNEL staining of brain sections of normal non-ischemic rats after IN inoculation; assay type: in vivo; details: H&E and TUNEL stained sections, N = 6 per group
Protocol: Brain pathology was analyzed by incubating 2 mm thick brain slices in 2% 2,3,5-triphenyltetrazolium chloride (TTC staining, Sigma) and measuring the infarct volume after fixation using Image J software as previously described. Paraffin-embedded brain sections were also subjected to H&E staining and immunohistochemistry after with an antibody to rat Fas (ab82419, Abcam). Apoptosis in de-paraffinized, rehydrated brain sections was analyzed by TUNEL staining using the In Situ Cell Death Detection Kit (Roche, Germany) in accordance with the manufacturer’s instructions.
(A) Regional cerebral blood flow (rCBF) in rat’s subject to MCAO. The cerebral blood flow was measured during ligation of CCA, occlusion of MCA and after reperfusion (N=6 per group) and a 9 fold reduction was considered as a confirmation of ischemic stroke injury. (B) Bio-distribution of IN inoculated ctr-FBP-A488 or FBP-A488 at the indicated time points in normal non-ischemic rats that constitute a control group (N=3 per group). Mock treated animals were inoculated with PBS. (C) Representative hematoxylin and eosin (H&E) (upper panel) and TUNEL (lower panel) stained paraffin embedded sections from normal rat inoculated with PBS (Mock), ctr-FBP or FBP […]
change in tissue morphology and toxicity. Scale bare represents 100µm. ctr-FBP-A488- Alexa488 labeled control peptide, FBP-A488- Alexa488 labeled Fas-blocking peptide.

[1] = Brain biodistribution of intranasally inoculated A488-labeled peptide in normal and MCAO rats; assay type: in vivo, Sprague–Dawley rats; details: intranasal (POD), MCAO rats; fluorescence imaging
From the text: Figure 3 IN delivered FBP localizes to Fas-expressing brain regions in the MCAO rat model of focal ischemia. (A) Immunohistochemistry for Fas expression in ischemic rat brain after MCAO. Representative images of deparaffinized coronal brain sections from normal or ischemic rats stained with anti-Fas antibody at the designated times post-MCAO are shown. Representative images (upper panel) and cumulative data (lower panel) depicting fluorescence intensities measured in arbitrary pixel values relative to that at the 12 h ‘normal’ rats. Scale bar = 50 µm. The data represent mean ± SD (N = 6 per group). *P < 0.05 at individual time-points, Mann-Whitney U test, ^###P < 0.001; Cumulative data, Two-way ANOVA. […] Representative images (upper panel) and cumulative data (lower panel) depicting fluorescence intensities measured in arbitrary pixel values relative to and normalized based on fluorescence intensities in normal group. […]
For bio-distribution studies, A488-conjugated FBP was intranasally (IN) administered at 500 μg (1.4 mg/kg) in a final volume of 50 μL (25 μL in each nare) using the POD at 12 h post-MCAO and fluorescence analyzed at designated time points in isolated organs using Image Station 4000 mm (Carestream Rochester, NY) or by flow cytometry of single cell suspensions on a FACS Calibur™ (BD Bioscience, San Jose, CA) and analyzed using the Flowjo software. […]

Compound	Change in brain tissue morphology and toxicity in normal rats (normal rat brain tissue)	Clearance of peptide from brain after IN delivery [1]
N[C@@H](Cc1ccc(O)cc1)C(=O)N[C@@H](CS)C(=O)N[C@@H](CC(=O)O)C(=O)N[C@@H](CCC(=O)O)C(=O)N[C@@H](Cc1c[nH]cn1)C(=O)N[C@@H](Cc1ccccc1)C(=O)N[C@@H](CS)C(=O)N[C@@H](Cc1ccc(O)cc1)C(=O)O [FBP] (H-YCDEHFCY-OH)	did not shows any change in tissue morphology and toxicity	
CC(C)[C@H](NC(=O)[C@@H](NC(=O)[C@H](CO)NC(=O)[C@H](CC(N)=O)NC(=O)[C@H](CS)NC(=O)[C@@H](N)Cc1ccc(O)cc1)[C@@H](C)O)C(=O)N[C@@H](CS)C(=O)N[C@@H](Cc1ccc(O)cc1)C(=O)O [ctr-FBP] (H-YCNSTVCY-OH)	did not shows any change in tissue morphology and toxicity	cleared within a few hours of treatment
